Experimental data published in ChEMBL document CHEMBL1133396, “Construction of HIV Rev peptides containing peptide nucleic acid that bind HIV RRE IIB RNA” (Bioorg Med Chem Lett, 2000).
Peptide text beside a SMILES is read from it.

Biological target: Nucleic Acid
Test: Dissociation constant against stem loop IIB region of RRE-response element RNA was reported
Assay type: nucleic-acid assay, Human immunodeficiency virus 1

Kd | SMILES
8 nM | C[C@H](NC(=O)[C@H](CCC(N)=O)NC(=O)[C@H](CCCNC(=N)N)NC(=O)[C@@H](NC(=O)CCC(=O)O)[C@@H](C)O)C(=O)N[C@@H](CCCNC(=N)N)C(=O)N[C@@H](CCCNC(=N)N)C(=O)N[C@@H](CC(N)=O)C(=O)N[C@@H](CCCNC(=N)N)C(=O)N[C@@H](CCCNC(=N)N)C(=O)N[C@@H](CCCNC(=N)N)C(=O)N[C@@H](CCCNC(=N)N)C(=O)N[C@@H](Cc1c[nH]c2ccccc12)C(=O)N[C@@H](CCCNC(=N)N)C(=O)N[C@@H](CCC(=O)O)C(=O)N[C@@H](CCCNC(=N)N)C(=O)N[C@@H](CCC(N)=O)C(=O)N[C@@H](CCCNC(=N)N)C(=O)NCC(N)=O (HELM PEPTIDE1{[O=C(O)CCC(=O)[*:2]].T.R.Q.A.R.R.N.R.R.R.R.W.R.E.R.Q.R.G.[am]}$$$$V2.0)
21 nM | C[C@H](NC(=O)[C@H](CCC(N)=O)NC(=O)[C@H](CCCNC(=N)N)NC(=O)[C@@H](NC(=O)CCC(=O)O)[C@@H](C)O)C(=O)N[C@@H](CCCNC(=N)N)C(=O)N[C@@H](CCCNC(=N)N)C(=O)N[C@@H](CC(N)=O)C(=O)N[C@@H](CCCNC(=N)N)C(=O)N[C@@H](CCCNC(=N)N)C(=O)N[C@@H](CCCNC(=N)N)C(=O)N[C@@H](CCCNC(=N)N)C(=O)N[C@@H](Cc1c[nH]c2ccccc12)C(=O)N[C@@H](CCCNC(=N)N)C(=O)N[C@@H](CCC(=O)O)C(=O)N[C@@H](CCCNC(=N)N)C(=O)N[C@@H](CCC(N)=O)C(=O)NCCN(CC(N)=O)C(=O)Cn1ccc(N)nc1=O (HELM PEPTIDE1{[O=C(O)CCC(=O)[*:2]].T.R.Q.A.R.R.N.R.R.R.R.W.R.E.R.Q.[NC(=O)CN(CCN[*:1])C(=O)Cn1ccc(N)nc1=O]}$$$$V2.0)
42 nM | C[C@H](NC(=O)[C@H](CCC(N)=O)NC(=O)[C@H](CCCNC(=N)N)NC(=O)[C@@H](NC(=O)CCC(=O)O)[C@@H](C)O)C(=O)N[C@@H](CCCNC(=N)N)C(=O)N[C@@H](CCCNC(=N)N)C(=O)N[C@@H](CC(N)=O)C(=O)N[C@@H](CCCNC(=N)N)C(=O)N[C@@H](CCCNC(=N)N)C(=O)N[C@@H](CCCNC(=N)N)C(=O)N[C@@H](CCCNC(=N)N)C(=O)N[C@@H](Cc1c[nH]c2ccccc12)C(=O)N[C@@H](CCCNC(=N)N)C(=O)N[C@@H](CCC(=O)O)C(=O)N[C@@H](CCCNC(=N)N)C(=O)N[C@@H](CCC(N)=O)C(=O)NCC(=O)NCC(N)=O (HELM PEPTIDE1{[O=C(O)CCC(=O)[*:2]].T.R.Q.A.R.R.N.R.R.R.R.W.R.E.R.Q.G.G.[am]}$$$$V2.0)
10 nM | C[C@H](NC(=O)[C@H](CCC(N)=O)NC(=O)[C@H](CCCNC(=N)N)NC(=O)[C@@H](NC(=O)CCC(=O)O)[C@@H](C)O)C(=O)N[C@@H](CCCNC(=N)N)C(=O)N[C@@H](CCCNC(=N)N)C(=O)N[C@@H](CC(N)=O)C(=O)N[C@@H](CCCNC(=N)N)C(=O)N[C@@H](CCCNC(=N)N)C(=O)N[C@@H](CCCNC(=N)N)C(=O)N[C@@H](CCCNC(=N)N)C(=O)N[C@@H](Cc1c[nH]c2ccccc12)C(=O)N[C@@H](CCCNC(=N)N)C(=O)N[C@@H](CCC(=O)O)C(=O)N[C@@H](CCCNC(=N)N)C(=O)N[C@@H](CCC(N)=O)C(=O)NCCN(CC(N)=O)C(=O)Cn1cnc2c(N)ncnc21 (HELM PEPTIDE1{[O=C(O)CCC(=O)[*:2]].T.R.Q.A.R.R.N.R.R.R.R.W.R.E.R.Q.[NC(=O)CN(CCN[*:1])C(=O)Cn1cnc2c(N)ncnc21]}$$$$V2.0)
420 nM | C[C@H](NC(=O)[C@H](CCC(N)=O)NC(=O)[C@H](CCCNC(=N)N)NC(=O)[C@@H](NC(=O)CCC(=O)O)[C@@H](C)O)C(=O)N[C@@H](CCCNC(=N)N)C(=O)NCCN(CC(=O)N[C@@H](CC(N)=O)C(=O)N[C@@H](CCCNC(=N)N)C(=O)N[C@@H](CCCNC(=N)N)C(=O)N[C@@H](CCCNC(=N)N)C(=O)N[C@@H](CCCNC(=N)N)C(=O)N[C@@H](Cc1c[nH]c2ccccc12)C(=O)N[C@@H](CCCNC(=N)N)C(=O)N[C@@H](CCC(=O)O)C(=O)N[C@@H](CCCNC(=N)N)C(=O)N[C@@H](CCC(N)=O)C(=O)N[C@@H](CCCNC(=N)N)C(N)=O)C(=O)Cn1ccc(N)nc1=O
240 nM | C[C@H](NC(=O)[C@H](CCC(N)=O)NC(=O)[C@H](CCCNC(=N)N)NC(=O)[C@@H](NC(=O)CCC(=O)O)[C@@H](C)O)C(=O)N[C@@H](CCCNC(=N)N)C(=O)N[C@@H](CCCNC(=N)N)C(=O)N[C@@H](CC(N)=O)C(=O)N[C@@H](CCCNC(=N)N)C(=O)N[C@@H](CCCNC(=N)N)C(=O)N[C@@H](CCCNC(=N)N)C(=O)NCCN(CC(=O)N[C@@H](Cc1c[nH]c2ccccc12)C(=O)N[C@@H](CCCNC(=N)N)C(=O)N[C@@H](CCC(=O)O)C(=O)N[C@@H](CCCNC(=N)N)C(=O)N[C@@H](CCC(N)=O)C(=O)N[C@@H](CCCNC(=N)N)C(N)=O)C(=O)Cn1ccc(N)nc1=O
